Source: publication PMC6388989 (Cancer Management and Research, 2019)
Entries after “also recorded” stand apart in the source; their conditions may differ.

Columns and labels:
NCI-H460 cells [1] = format: cell-based, human
H460 cells [2] = format: cell-based, human
NCI-H460 cells [3] = format: cell-based, human; remark: listed apart in the source
NCI-H460 cells [4] = format: cell-based, human; details: 48 hours
H460 cells [5] = format: cell-based, human; remark: listed apart in the source
[6] = system: protein markers in NCI-H460 cells; format: cell-based, human; details: 48 hours
NIH-3T3 cells = details: at 50 µM
NCI-H460 cells [7] = format: cell-based, human; details: 48 hours; remark: listed apart in the source
NCI-H460 cells [8] = format: cell-based, human; details: 48 hours; remark: listed apart in the source
[9] = system: marker genes in NCI-H460 cells; format: cell-based, human; details: 48 hours
NCI-H460 cells [10] = format: cell-based, human; remark: listed apart in the source

C=C(C)[C@@H]1CC[C@]2(CO)CC[C@]3(C)[C@H](CC[C@@H]4[C@@]5(C)CC[C@H](O)C(C)(C)[C@@H]5CC[C@]43C)[C@@H]12 [Betulin (3), Lup-20 (29)-ene-3, 28-diol]
induction of apoptosis (FACS) (NCI-H460 cells [1]): significantly underwent apoptosis in a dose-dependent manner
morphological changes of H460 cells (H460 cells [2]): membrane blebbing and formation of apoptotic bodies
activity against cancer cells compared to normal 3t3 cells (NCI-H460 cells [3]): four times more active
invasive ability of NCI-H460 cells (NCI-H460 cells [4]): inhibited in a dose-dependent manner
colony formation (H460 cells [5]): completely eradicated cancer cells
morphology of 3T3 cells (3T3 cells): regained their normal morphology and started to propagate
BCL-2L1 protein expression (immunocytochemistry) [6]: marked inhibition
caspase-3 protein expression (immunofluorescence) [6]: significant upregulation
caspase-6 protein expression (immunofluorescence) [6]: significant upregulation
caspase-8 protein expression (immunofluorescence) [6]: decreased with the increase in betulin treatment
expression of proliferative marker Ki-67 [6]: significant inhibition
osteopontin levels (immunocytochemistry) [6]: positively inhibited
cytotoxicity to normal NIH-3T3 cells (NIH-3T3 cells): noncytotoxic
mitochondrial membrane potential (Δψm) (NCI-H460 cells [7]): collapse of MMP
nuclear morphology (NCI-H460 cells [8]): highly condensed nucleus, apoptotic bodies and DNA fragmentation
BAK gene expression [9]: upregulated
BAX gene expression [9]: upregulated
BCL-2L1 gene expression [9]: significantly downregulated
COX-2 gene expression [9]: inhibited
HRK gene expression [9]: upregulation
VEGF gene expression [9]: inhibited
caspase-3 gene expression [9]: significantly upregulated
caspase-6 gene expression [9]: significantly upregulated
caspase-8 gene expression [9]: inhibited; also recorded: significantly downregulated
caspase-9 gene expression [9]: significantly upregulated
p53 gene expression [9]: significantly downregulated
reduction in wound healing rates of treated vs untreated cells (NCI-H460 cells [10]): approximate threefold reduction
